Experimental data published in patent US20020138856A1, “Compositions and methods useful for treatment of depressive disorder based on an animal model” (Northwestern University, priority 1998, published 2002).
Entries after “also recorded” stand apart in the source; their conditions may differ.

Key:
WMI rats = assay: Forced swim test (FST) immobility before and after drug administration, WMI rats; format: in vivo, rat; settings: for effect on alleviating depression (FST immobility): desipramine administered three times within 24 hours
Description: (§1) FIG. 6 is a graph depicting the immobility in the forced swim test of 14 week-old animals before and after administration of either desipramine, fluoxetine, or water in WMI and WLI animals. Shaded squares and circles indicate immobility after treatment, unshaded squares and circles indicate immobility before treatment, squares indicate WMI animals, and circles indicate WLI animals.
(§2) The main test of behavior in the rats of the invention is the FST. The general parameters governing this test are as follows, it being understood that variations of the test are permissible within acceptable bounds. The test utilizes a glass water tank 30 cm in diameter and 45 cm tall wherein the water level is 15 cm from the top and the water temperature is 25° C. The procedure for the test is adapted from Porsolt et al. and Detke et al., as described in Detke et al., 1995, Psychopharm. 121:66-72). Rats are individually placed in the water tank for 15 minutes and are then removed from the tank and returned to their cages. […] This 5 minute test session is recorded on videotape. The performance of the rat on the tape is analyzed and subsequently scored using the scoring system developed by Detke et al. (1995, Psychopharm. 121:66-72) by a trained observer, who is unaware as to the various treatment conditions of the rats. […] The following behaviors are recorded: immobility, swimming, and climbing. The rats are scored at 5 second intervals, thus, there are 12 intervals per minute sampled. […] By way of example, if a rat was scored as immobile at 13 of the […], the FST score would be 13. […]
(§3) The WMI and WLI rats of the invention are useful for screening compounds effective for modulation, preferably, alleviation of depression and other behavioral and depressive disorders. […] WMI and WLI rats are administered a test compound or a placebo at a dosage, a route of administration and for a period of time which is determined by the artisan skilled in such procedures, following standard protocols such as those described, for example, in Remington's Pharmaceutical Sciences, Mack Publishing Co., Easton, Pa., 1985. […]

WLI rats = assay: Forced swim test (FST) immobility before and after drug administration, WLI rats; format: in vivo, rat
Description: as §1, §2, §3

WKY rats = settings: chronic and subacute treatment (three times per day between first and third swim); cited from earlier work

Row | Compound | immobility time in the forced swim test after administration (WMI rats; 14 week-old, before treatment about nineteen 5-second intervals, FIG. 6) | effect on alleviating depression (FST immobility) (WMI rats) | effect on alleviating depression (FST immobility) (WLI rats) | immobility time in the forced swim test after administration (WLI rats; 14 week-old, before treatment about nine 5-second intervals, change not significant, FIG. 6) | effect on depressive behavior (immobility, struggling in forced swim test) (WKY rats)
1 | CNCCCN1c2ccccc2CCc2ccccc21 [Desipramine, desipramine] | about five | responsive; also recorded: effectively alleviated depression | do not respond; also recorded: resistant to treatment | about six | decreased the depressive behavior
2 | CNCCC(Oc1ccc(C(F)(F)F)cc1)c1ccccc1 (centres unmarked) [Fluoxetine, fluoxetine] | – | virtually no effect | virtually no effect | – | –
3 | CN(C)CCCN1c2ccccc2CCc2ccccc21 [imipramine] | – | – | – | – | decreased the depressive behavior
